Results taken from ChEMBL document CHEMBL1132780, “Synthesis and NK1/NK2 receptor activity of substituted-4(Z)-(methoxyimino)pentyl-1-piperazines” (Bioorg Med Chem Lett, 2000).

Assays:
Substance-P receptor = Substance-P receptor (Homo sapiens, UniProt P25103); assay: Inhibitory activity against human tachykinin receptor 1
Substance-K receptor = biological target: T1, Substance-K receptor (Homo sapiens, UniProt P21452); assay: Inhibitory activity against human tachykinin receptor 2
T1 sequence (P21452 whole entry): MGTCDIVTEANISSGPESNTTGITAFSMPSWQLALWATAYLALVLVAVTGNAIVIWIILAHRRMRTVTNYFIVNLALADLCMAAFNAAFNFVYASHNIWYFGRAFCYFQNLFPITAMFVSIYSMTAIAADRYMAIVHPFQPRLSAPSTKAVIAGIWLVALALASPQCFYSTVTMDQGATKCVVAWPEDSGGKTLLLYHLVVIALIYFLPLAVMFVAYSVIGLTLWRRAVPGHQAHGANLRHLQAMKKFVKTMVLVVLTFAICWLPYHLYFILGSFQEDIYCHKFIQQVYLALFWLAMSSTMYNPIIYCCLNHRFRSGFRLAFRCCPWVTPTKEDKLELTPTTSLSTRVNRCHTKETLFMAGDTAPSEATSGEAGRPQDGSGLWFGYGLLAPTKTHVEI

Substance-P receptor, sequence (P25103 whole entry): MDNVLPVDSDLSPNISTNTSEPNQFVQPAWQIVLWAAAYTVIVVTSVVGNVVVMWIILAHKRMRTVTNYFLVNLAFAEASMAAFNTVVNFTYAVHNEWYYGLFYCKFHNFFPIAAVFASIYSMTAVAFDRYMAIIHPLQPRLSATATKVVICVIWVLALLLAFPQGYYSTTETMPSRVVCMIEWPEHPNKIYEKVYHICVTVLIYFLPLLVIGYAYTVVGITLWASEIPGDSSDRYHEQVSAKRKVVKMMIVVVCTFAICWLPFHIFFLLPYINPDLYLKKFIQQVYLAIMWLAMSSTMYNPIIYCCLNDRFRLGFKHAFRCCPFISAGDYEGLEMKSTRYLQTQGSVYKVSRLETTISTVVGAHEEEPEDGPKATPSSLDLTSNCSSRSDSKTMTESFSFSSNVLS

Row | Ki (Substance-P receptor) [nM] | Ki (Substance-K receptor) [nM] | Compound
1 | 47 | 52 | CO/N=C(\COCc1cc(C(F)(F)F)cc(C(F)(F)F)c1)C(CCN1CCN(CC(=O)N2CCCCC2CO)CC1)c1ccc(Cl)c(Cl)c1 (configuration not stated)
2 | 82 | 208 | CO/N=C(\COCc1cc(C(F)(F)F)cc(C(F)(F)F)c1)C(CCN1CCN(CC(=O)N2CCCCC2)CC1)c1ccc(Cl)c(Cl)c1 (configuration not stated)
3 | 14 | 95 | CO/N=C(\COCc1cc(C(F)(F)F)cc(C(F)(F)F)c1)C(CCN1CCN(CC(=O)N2CCC(N(C)C)C2)CC1)c1ccc(Cl)c(Cl)c1 (configuration not stated)
4 | 19 | 28 | CO/N=C(\COCc1cc(C(F)(F)F)cc(C(F)(F)F)c1)C(CCN1CCN(CC(=O)N2CCOCC2)CC1)c1ccc(Cl)c(Cl)c1 (configuration not stated)
5 | 62 | 259 | CO/N=C(\COCc1cc(C(F)(F)F)cc(C(F)(F)F)c1)C(CCN1CCN(CC(=O)NC2CC2)CC1)c1ccc(Cl)c(Cl)c1 (configuration not stated)
6 | 22 | 31 | CO/N=C(\COCc1cc(C(F)(F)F)cc(C(F)(F)F)c1)C(CCN1CCN(CC(=O)N2CC(O)C2)CC1)c1ccc(Cl)c(Cl)c1 (configuration not stated)
7 | 70 | 217 | CO/N=C(\COCc1cc(C(F)(F)F)cc(C(F)(F)F)c1)C(CCN1CCN(c2ncccn2)CC1)c1ccc(Cl)c(Cl)c1 (configuration not stated)
8 | 181 | 978 | CO/N=C(\COCc1cc(C(F)(F)F)cc(C(F)(F)F)c1)C(CCN1CCN(c2ccccc2)CC1)c1ccc(Cl)c(Cl)c1 (configuration not stated)
9 | 9 | 48 | CO/N=C(\COCc1cc(C(F)(F)F)cc(C(F)(F)F)c1)C(CCN1CCN(CC(=O)N2CCC(NC(C)=O)C2)CC1)c1ccc(Cl)c(Cl)c1 (configuration not stated)
10 | 53 | 128 | CO/N=C(\COCc1cc(C(F)(F)F)cc(C(F)(F)F)c1)C(CCN1CCN(C2CCCCC2)CC1)c1ccc(Cl)c(Cl)c1 (configuration not stated)
11 | 14 | 21 | CO/N=C(\COCc1cc(C(F)(F)F)cc(C(F)(F)F)c1)C(CCN1CCN(CC(=O)N2CCCC2)CC1)c1ccc(Cl)c(Cl)c1 (configuration not stated)
12 | 24 | 409 | CCOC(=O)C1CCN(C(=O)CN2CCN(CCC(/C(COCc3cc(C(F)(F)F)cc(C(F)(F)F)c3)=N/OC)c3ccc(Cl)c(Cl)c3)CC2)CC1 (configuration not stated)
13 | 113 | 368 | CO/N=C(\COCc1cc(C(F)(F)F)cc(C(F)(F)F)c1)C(CCN1CCN(CC(=O)N(C)C2CCCCC2)CC1)c1ccc(Cl)c(Cl)c1 (configuration not stated)
14 | 30 | 738 | CO/N=C(\COCc1cc(C(F)(F)F)cc(C(F)(F)F)c1)C(CCN1CCNCC1)c1ccc(Cl)c(Cl)c1 (configuration not stated)

The remaining lines, values behind:

Row | Compound | Ki (Substance-P receptor) [nM] | Ki (Substance-K receptor) [nM]
15 | CO/N=C(\COCc1cc(C(F)(F)F)cc(C(F)(F)F)c1)C(CCN1CCN(CC(=O)N2CCc3ccccc3C2)CC1)c1ccc(Cl)c(Cl)c1 (configuration not stated) | 125 | 566
16 | CO/N=C(\COCc1cc(C(F)(F)F)cc(C(F)(F)F)c1)C(CCN1CCN(CC(=O)NCC2CCCO2)CC1)c1ccc(Cl)c(Cl)c1 (configuration not stated) | 20 | 266
17 | CO/N=C(\COCc1cc(C(F)(F)F)cc(C(F)(F)F)c1)C(CCN1CCN(CC(=O)N(C(C)C)C(C)C)CC1)c1ccc(Cl)c(Cl)c1 (configuration not stated) | 82 | 170
18 | CCOCCCNC(=O)CN1CCN(CCC(/C(COCc2cc(C(F)(F)F)cc(C(F)(F)F)c2)=N/OC)c2ccc(Cl)c(Cl)c2)CC1 (configuration not stated) | 39 | 382
19 | CO/N=C(\COCc1cc(C(F)(F)F)cc(C(F)(F)F)c1)C(CCN1CCN(CC(=O)N2CCCC(O)C2)CC1)c1ccc(Cl)c(Cl)c1 (configuration not stated) | 13 | 38
20 | CO/N=C(\COCc1cc(C(F)(F)F)cc(C(F)(F)F)c1)C(CCN1CCN(CC(=O)Nc2ccccc2)CC1)c1ccc(Cl)c(Cl)c1 (configuration not stated) | 125 | > 680
21 | CO/N=C(\COCc1cc(C(F)(F)F)cc(C(F)(F)F)c1)C(CCN1CCN(CC(=O)N2CCC(O)C2)CC1)c1ccc(Cl)c(Cl)c1 (configuration not stated) | 16 | 30
22 | CO/N=C(\COCc1cc(C(F)(F)F)cc(C(F)(F)F)c1)C(CCN1CCN(C)CC1)c1ccc(Cl)c(Cl)c1 (configuration not stated) | 61 | 200
23 | CO/N=C(\COCc1cc(C(F)(F)F)cc(C(F)(F)F)c1)C(CCN1CCN(CC(=O)NC2CCc3ccccc32)CC1)c1ccc(Cl)c(Cl)c1 (configuration not stated) | 136 | > 680
24 | CO/N=C(\COCc1cc(C(F)(F)F)cc(C(F)(F)F)c1)C(CCN1CCN(CC(=O)N2CCC[C@H]2C(N)=O)CC1)c1ccc(Cl)c(Cl)c1 (some centres not stated) | 24 | 26
25 | CO/N=C(\COCc1cc(C(F)(F)F)cc(C(F)(F)F)c1)C(CCN1CCN(CC(=O)N2CCC2)CC1)c1ccc(Cl)c(Cl)c1 (configuration not stated) | 23 | 33
26 | CO/N=C(\COCc1cc(C(F)(F)F)cc(C(F)(F)F)c1)C(CCN1CCN(CC(=O)N2CCCC3CCCCC32)CC1)c1ccc(Cl)c(Cl)c1 (configuration not stated) | 136 | 477
